Where “and” joins values, the source holds several entries; their conditions need not be identical. Identical values can stand only once. Inconclusive results and toxic doses are left out.
Test system: BDF1 mice, P288 leukemia ip, survival T/C
Assay: NCI In Vivo Anticancer Drug Screen. Data for tumor model P288 Lymphocytic Leukemia (intraperitoneal) in B6D2F1 (BDF1) mice
Conditions: endpoint: survival time, mean or median, higher = longer survival
Description: The antitumor activity of compounds was measured in mice bearing transplantable tumors. Survival or tumor size were measured and the results are expressed as the measurement made in the treated group (T) divided by the measurement made in the vehicle treated control group (C). The tumor model used in this assay is P288 Lymphocytic Leukemia (intraperitoneal) in B6D2F1 (BDF1) mice

[1] = dose: 25.0 mg/kg/injection, schedule: Q01DX010 (ip), vehicle: saline
[2] = dose: 50.0 mg/kg/injection, schedule: Q01DX010 (ip), vehicle: saline
[3] = dose: 100.0 mg/kg/injection, schedule: Q01DX010 (ip), vehicle: saline
[4] = dose: 200.0 mg/kg/injection, schedule: Q01DX010 (ip), vehicle: saline
[5] = dose: 125.0 mg/kg/injection, schedule: Q01DX Z (ip), vehicle: carboxymethylcellulose (CMC)
[6] = dose: 125.0 mg/kg/injection, schedule: Q01DX Z (ip), vehicle: saline

Question: For `CC/C(=C(/CC)c1ccc(O)cc1)c1ccc(O)cc1`, which T/C (dose: 1.0 mg/kg/injection, schedule: Q01DX Z (sc), vehicle: steriod suspending solution) is on record?
Answer: The T/C was 100 % of control.

Question: And the T/C (dose: 2.0 mg/kg/injection, schedule: Q01DX Z (sc), vehicle: steriod suspending solution)?
Answer: Its T/C is 103 % of control.

Question: And the T/C (dose: 4.0 mg/kg/injection, schedule: Q01DX Z (sc), vehicle: steriod suspending solution)?
Answer: Its T/C is 97 % of control.

Question: What about the T/C (dose: 8.0 mg/kg/injection, schedule: Q01DX Z (sc), vehicle: steriod suspending solution) of the same molecule?
Answer: The T/C was 118 % of control.

Question: And the T/C (dose: 12.5 mg/kg/injection, schedule: Q01DX010 (sc), vehicle: steriod suspending solution)?
Answer: The T/C was 100 % of control.

Question: And the T/C (dose: 16.0 mg/kg/injection, schedule: Q01DX Z (sc), vehicle: steriod suspending solution)?
Answer: The T/C was 118 % of control.

Question: What about the T/C (dose: 25.0 mg/kg/injection, schedule: Q01DX010 (sc), vehicle: steriod suspending solution) of the same molecule?
Answer: The T/C was 106 % of control.

Question: And the T/C (dose: 31.0 mg/kg/injection, schedule: Q01DX Z (sc), vehicle: steriod suspending solution)?
Answer: The T/C was 103 % of control.

Question: What about the T/C (dose: 50.0 mg/kg/injection, schedule: Q01DX010 (sc), vehicle: steriod suspending solution) of the same molecule?
Answer: Its T/C is 112 % of control and 121 % of control.

Question: What about the T/C (dose: 62.0 mg/kg/injection, schedule: Q01DX Z (sc), vehicle: steriod suspending solution) of the same molecule?
Answer: Its T/C is 97 % of control.

Question: What about the T/C (dose: 100.0 mg/kg/injection, schedule: Q01DX010 (sc), vehicle: steriod suspending solution) of the same molecule?
Answer: The T/C was 114 % of control and 100 % of control.

Question: And the T/C (dose: 125.0 mg/kg/injection, schedule: Q01DX Z (sc), vehicle: steriod suspending solution)?
Answer: The T/C was 91 % of control.

Question: And the T/C (dose: 250.0 mg/kg/injection, schedule: Q01DX Z (sc), vehicle: steriod suspending solution)?
Answer: The T/C was 101 % of control.

Question: With `O=C1C(NC(=O)C2CCCCC2)=C(N2CC2)C(=O)C(NC(=O)C2CCCCC2)=C1N1CC1` as the molecule, how does the T/C (dose: 18.8 mg/kg/injection, schedule: Q01DX Z (ip), vehicle: carboxymethylcellulose (CMC)) read?
Answer: The T/C was 93 % of control.

Question: What about the T/C [1] of the same molecule?
Answer: The T/C was 100 % of control.

Question: What about the T/C (dose: 37.5 mg/kg/injection, schedule: Q01DX Z (ip), vehicle: carboxymethylcellulose (CMC)) of the same molecule?
Answer: Its T/C is 96 % of control.

Question: And the T/C [2]?
Answer: The T/C was 94 % of control.

Question: What about the T/C (dose: 75.0 mg/kg/injection, schedule: Q01DX Z (ip), vehicle: carboxymethylcellulose (CMC)) of the same molecule?
Answer: The T/C was 107 % of control.

Question: What about the T/C [3] of the same molecule?
Answer: Its T/C is 88 % of control.

Question: And the T/C (dose: 150.0 mg/kg/injection, schedule: Q01DX Z (ip), vehicle: carboxymethylcellulose (CMC))?
Answer: Its T/C is 100 % of control.

Question: What about the T/C [4] of the same molecule?
Answer: The T/C was 100 % of control.

Question: What about the T/C (dose: 300.0 mg/kg/injection, schedule: Q01DX Z (ip), vehicle: carboxymethylcellulose (CMC)) of the same molecule?
Answer: Its T/C is 112 % of control.

Question: And the T/C (dose: 600.0 mg/kg/injection, schedule: Q01DX Z (ip), vehicle: carboxymethylcellulose (CMC))?
Answer: Its T/C is 105 % of control and 120 % of control.

Question: What about the T/C (dose: 1200.0 mg/kg/injection, schedule: Q01DX Z (ip), vehicle: carboxymethylcellulose (CMC)) of the same molecule?
Answer: Its T/C is 86 % of control.

Question: With `Cn1cnc([N+](=O)[O-])c1Sc1ncnc2nc[nH]c12` as the molecule, how does the T/C (dose: 12.5 mg/kg/injection, schedule: Q01DX Z (ip), vehicle: carboxymethylcellulose (CMC)) read?
Answer: The T/C was 104 % of control.

Question: What about the T/C (dose: 25.0 mg/kg/injection, schedule: Q01DX Z (ip), vehicle: carboxymethylcellulose (CMC)) of the same molecule?
Answer: Its T/C is 112 % of control.

Question: What about the T/C (dose: 50.0 mg/kg/injection, schedule: Q01DX Z (ip), vehicle: carboxymethylcellulose (CMC)) of the same molecule?
Answer: The T/C was 114 % of control.

Question: And the T/C (dose: 100.0 mg/kg/injection, schedule: Q01DX Z (ip), vehicle: carboxymethylcellulose (CMC))?
Answer: Its T/C is 98 % of control.

Question: Which results are given for `OCC1OC(n2cnc3c(Cl)ncnc32)C(O)C1O` (configuration not stated)?
Answer: T/C (dose: 62.5 mg/kg/injection, schedule: Q01DX Z (ip), vehicle: carboxymethylcellulose (CMC)): 104 % of control; T/C [5]: 101 % of control; T/C (dose: 250.0 mg/kg/injection, schedule: Q01DX Z (ip), vehicle: carboxymethylcellulose (CMC)): 92 % of control; T/C (dose: 500.0 mg/kg/injection, schedule: Q01DX Z (ip), vehicle: carboxymethylcellulose (CMC)): 106 % of control

Question: What does the source list for `CC(=O)Nc1ccc2nc3ccc(NC(C)=O)cc3[n+](-c3ccccc3)c2c1`?
Answer: T/C (dose: 3.1 mg/kg/injection, schedule: Q01DX Z (ip), vehicle: carboxymethylcellulose (CMC)): 115 % of control; T/C (dose: 6.25 mg/kg/injection, schedule: Q01DX Z (ip), vehicle: carboxymethylcellulose (CMC)): 113 % of control; T/C [1]: 112 % of control; T/C [2]: 112 % of control and 95 % of control; T/C [3]: 95 % of control; T/C [4]: 90 % of control; T/C (dose: 400.0 mg/kg/injection, schedule: Q01DX010 (ip), vehicle: saline): 100 % of control; T/C (dose: 400.0 mg/kg/injection, schedule: Q01DX Z (ip), vehicle: carboxymethylcellulose (CMC)): 162 % of control

Question: Which T/C (dose: 0.25 mg/kg/injection, schedule: Q01DX Z (ip), vehicle: carboxymethylcellulose (CMC)) does the source give for `Cn1cnc([N+](=O)[O-])c1Sc1nc(N)nc2nc[nH]c12` here?
Answer: Its T/C is 107 % of control.

Question: What about the T/C (dose: 0.5 mg/kg/injection, schedule: Q01DX Z (ip), vehicle: carboxymethylcellulose (CMC)) of the same molecule?
Answer: Its T/C is 94 % of control.

Question: And the T/C (dose: 1.0 mg/kg/injection, schedule: Q01DX Z (ip), vehicle: carboxymethylcellulose (CMC))?
Answer: Its T/C is 113 % of control.

Question: What about the T/C (dose: 2.0 mg/kg/injection, schedule: Q01DX Z (ip), vehicle: carboxymethylcellulose (CMC)) of the same molecule?
Answer: Its T/C is 105 % of control.

Question: Which results are given for `CS(=O)(=O)OCCCCOS(C)(=O)=O`?
Answer: T/C (dose: 6.25 mg/kg/injection, schedule: Q01DX010 (ip), vehicle: saline): 110 % of control; T/C (dose: 12.5 mg/kg/injection, schedule: Q01DX010 (ip), vehicle: saline): 105 % of control and 115 % of control; T/C [1]: 105 % of control and 110 % of control; T/C [2]: 121 % of control and 100 % of control

Question: Which results are given for `CN(C)c1nc(N(C)C)nc(N(C)C)n1`?
Answer: T/C (dose: 75.0 mg/kg/injection, schedule: Q01DX010 (ip), vehicle: saline): 90 % of control; T/C [5]: 97 % of control

Question: What does the source list for `CCOC(=O)c1[nH]c2ccccc2c1CN(CCCl)CCCl`?
Answer: T/C (dose: 20.0 mg/kg/injection, schedule: Q01DX010 (ip), vehicle: saline): 95 % of control; T/C (dose: 40.0 mg/kg/injection, schedule: Q01DX010 (ip), vehicle: saline): 100 % of control

Question: For `O=P1(N(CCCl)CCCl)NCCCO1` (configuration not stated), which T/C (dose: 11.3 mg/kg/injection, schedule: Q01DX010 (ip), vehicle: saline) is on record?
Answer: Its T/C is 119 % of control.

Question: And the T/C (dose: 12.5 mg/kg/injection, schedule: Q01DX Z (ip), vehicle: saline)?
Answer: The T/C was 102 % of control and 106 % of control.

Question: What about the T/C (dose: 25.0 mg/kg/injection, schedule: Q01DX Z (ip), vehicle: saline) of the same molecule?
Answer: The T/C was 113 % of control and 116 % of control.

Question: What about the T/C (dose: 45.0 mg/kg/injection, schedule: Q01DX010 (ip), vehicle: saline) of the same molecule?
Answer: Its T/C is 150 % of control and 198 % of control.

Question: And the T/C (dose: 50.0 mg/kg/injection, schedule: Q01DX Z (ip), vehicle: saline)?
Answer: Its T/C is 112 % of control and 113 % of control.

Question: What about the T/C (dose: 62.5 mg/kg/injection, schedule: Q01DX Z (ip), vehicle: saline) of the same molecule?
Answer: The T/C was 124 % of control.

Question: What about the T/C (dose: 90.0 mg/kg/injection, schedule: Q01DX010 (ip), vehicle: saline) of the same molecule?
Answer: Its T/C is 158 % of control.

Question: And the T/C (dose: 100.0 mg/kg/injection, schedule: Q01DX Z (ip), vehicle: saline)?
Answer: The T/C was 152 % of control.

Question: And the T/C [6]?
Answer: The T/C was 113 % of control.

Question: What about the T/C (dose: 180.0 mg/kg/injection, schedule: Q01DX010 (ip), vehicle: saline) of the same molecule?
Answer: The T/C was 91 % of control.

Question: And the T/C (dose: 200.0 mg/kg/injection, schedule: Q01DX Z (ip), vehicle: saline)?
Answer: The T/C was 86 % of control and 95 % of control.

Question: Which T/C (dose: 1.6 mg/kg/injection, schedule: Q01DX Z (ip), vehicle: methylcellulose (MC)) does the source give for `N=C(N)c1ccc(Nc2ccc(C(=N)N)cc2)cc1` here?
Answer: Its T/C is 86 % of control.

Question: What about the T/C (dose: 3.0 mg/kg/injection, schedule: Q01DX010 (ip), vehicle: saline) of the same molecule?
Answer: Its T/C is 100 % of control.

Question: What about the T/C (dose: 6.0 mg/kg/injection, schedule: Q01DX010 (ip), vehicle: saline) of the same molecule?
Answer: Its T/C is 106 % of control.

Question: And the T/C (dose: 6.25 mg/kg/injection, schedule: Q01DX Z (ip), vehicle: methylcellulose (MC))?
Answer: The T/C was 88 % of control.

Question: And the T/C (dose: 6.3 mg/kg/injection, schedule: Q01DX Z (ip), vehicle: methylcellulose (MC))?
Answer: Its T/C is 90 % of control.

Question: What about the T/C (dose: 12.0 mg/kg/injection, schedule: Q01DX010 (ip), vehicle: saline) of the same molecule?
Answer: Its T/C is 100 % of control.

Question: What about the T/C (dose: 12.5 mg/kg/injection, schedule: Q01DX Z (ip), vehicle: methylcellulose (MC)) of the same molecule?
Answer: Its T/C is 115 % of control.

Question: What about the T/C (dose: 24.0 mg/kg/injection, schedule: Q01DX010 (ip), vehicle: saline) of the same molecule?
Answer: Its T/C is 87 % of control.

Question: And the T/C (dose: 25.0 mg/kg/injection, schedule: Q01DX Z (ip), vehicle: methylcellulose (MC))?
Answer: Its T/C is 87 % of control.

Question: What does the source list for `CC(=O)N(C)C`?
Answer: T/C (dose: 31.0 mg/kg/injection, schedule: Q01DX Z (ip), vehicle: saline): 103 % of control; T/C [6]: 100 % of control; T/C (dose: 250.0 mg/kg/injection, schedule: Q01DX Z (ip), vehicle: saline): 93 % of control; T/C (dose: 500.0 mg/kg/injection, schedule: Q01DX Z (ip), vehicle: saline): 88 % of control; T/C (dose: 2000.0 mg/kg/injection, schedule: Q01DX Z (ip), vehicle: saline): 88 % of control
